The record followed here is patent US10112937B2, “P2X7 modulators and methods of use” (Janssen Pharmaceutica NV, priority 2013, dated 2018).

In one experiment the target is human P2X7 (Homo sapiens (Human), UniProt Q99572). Put plainly: P2X7 antagonism in human PBMCs (IL-1β release after LPS + Bz-ATP, ELISA). The experiment is classed as cell-based. The settings on record: 10 μM test compound, human PBMCs, LPS + Bz-ATP. A general note: In an ELISA, binding on a coated surface is turned into a signal by an enzyme label.
human P2X7, sequence (Q99572 whole entry): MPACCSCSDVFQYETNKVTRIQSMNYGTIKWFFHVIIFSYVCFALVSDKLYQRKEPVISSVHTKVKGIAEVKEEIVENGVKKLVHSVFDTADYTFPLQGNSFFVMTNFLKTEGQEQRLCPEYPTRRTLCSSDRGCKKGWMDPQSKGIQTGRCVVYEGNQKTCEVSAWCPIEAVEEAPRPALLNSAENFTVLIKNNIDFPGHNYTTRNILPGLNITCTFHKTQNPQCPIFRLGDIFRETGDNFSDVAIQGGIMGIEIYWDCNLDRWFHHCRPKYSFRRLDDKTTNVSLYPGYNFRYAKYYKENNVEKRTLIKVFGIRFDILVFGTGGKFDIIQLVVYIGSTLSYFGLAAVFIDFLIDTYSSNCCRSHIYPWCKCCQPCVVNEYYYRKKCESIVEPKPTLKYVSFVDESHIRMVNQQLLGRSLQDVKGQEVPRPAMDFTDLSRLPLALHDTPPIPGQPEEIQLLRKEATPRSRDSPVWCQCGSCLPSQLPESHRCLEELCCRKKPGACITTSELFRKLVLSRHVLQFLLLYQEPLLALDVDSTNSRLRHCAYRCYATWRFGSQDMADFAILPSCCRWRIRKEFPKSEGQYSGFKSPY
Protocol: P2X7 Antagonism in Human Peripheral Blood Mononuclear Cells (PBMCs) and Human Whole Blood.
Human blood was collected using a blood donor program. PBMCs were isolated from blood using a Ficoll density gradient technique. Briefly, blood was laid on Ficoll solution and centrifuged at RT for 20 minutes at 2000 rpm. The buffy layer (between red blood cells and plasma) was carefully collected by aspiration, washed with PBS and centrifuged again at 1500 rpm for 15 minutes. The resulting cell pellet was washed and plated on 96 well-plates for experiments. For the Human Whole Blood experiments, 150 μl of human blood was platted on 96 well-plates. Lipopolysaccharide (LPS) (30 ng/ml) was added to each well and incubated for 1 hour. Test compounds were then added and incubated for 30 minutes. The P2X7 agonist, 2′(3′)-O-(4-benzoylbenzoyl) adenosine 5′ triphosphate (Bz-ATP) was then added at a final concentration of 0.5 mM (PBMC) or 1 mM (blood). Cells were incubated for an additional 1.5 hours. At that point, supernatant was collected and stored for IL-1β assay using manufacturer's protocol for enzyme-linked immunosorbent assay (ELISA). Data was expressed as percent control, where control is defined as the difference in IL-1β release in LPS+Bz-ATP samples and LPS only samples. Data was plotted as response (% control) versus concentration to generate IC50 values. […] Data are analyzed and graphed on Graphpad Prism 5. For analysis, each concentration point is averaged from triplicate values and the averaged values are plotted on Graphpad Prism.
With `CCn1nccc1-n1nnc2c1CCN(C(=O)c1cccc(C(F)(F)F)c1Cl)[C@H]2C` [Example 407, (S)-(2-chloro-3-(trifluoromethyl)phenyl)(1-(1-ethyl-1H-pyrazol-5-yl)-4-methyl-6,7-dihydro-1H-[1,2,3]triazolo[4,5-c]pyridin-5(4H)-yl)methanone], the “PBMC 10 μM (% control)” value was determined as 77.4 % control.

Still in this experiment, the particulars now being: human PBMCs, test compound 1 μM.
In the case of `CC1c2ncn(-c3ccccn3)c2CCN1C(=O)c1cccc(C(F)(F)F)c1Cl` (stereo not drawn) [Example 17, (2-Chloro-3-(trifluoromethyl)phenyl)(4-methyl-1-(pyridin-2-yl)-6,7-dihydro-1H-imidazo[4,5-c]pyridin-5(4H)-yl)methanone], the “PBMC 1 μM (% control)” value amounted to 6.5 % control. `O=C(c1cccc(C(F)(F)F)c1Cl)N1CCc2c(ncn2-c2ccccc2)C1CO` (stereo not drawn) [Example 30, (5-{[2-Chloro-3-(trifluoromethyl)phenyl]carbonyl}-1-phenyl-4,5,6,7-tetrahydro-1H-imidazo[4,5-c]pyridin-4-yl)methanol]: the “PBMC 1 μM (% control)” value is 87.0 % control.

On to `C[C@H]1c2nnn(-c3cnccn3)c2CCN1C(=O)c1cccc(C(F)(F)F)c1Cl` (single isomer, unassigned) [Example 75, (4S*)-5-{[2-Chloro-3-(trifluoromethyl)phenyl]carbonyl}-4-methyl-1-pyrazin-2-yl-4,5,6,7-tetrahydro-1H-[1,2,3]triazolo[4,5-c]pyridine], for which the “PBMC 1 μM (% control)” value is listed as 5.2 % control.

For `Cn1nc2c(c1-c1ccccc1)CCN(C(=O)c1cccc(Cl)c1Cl)C2` [Example 102, 6-[(2,3-Dichlorophenyl)carbonyl]-2-methyl-3-phenyl-4,5,6,7-tetrahydro-2H-pyrazolo[3,4-c]pyridine], the “PBMC 1 μM (% control)” value is given as 18.0 % control.

The experiment is the same for the next values; noted with them: human PBMCs, test compound 10 μM.
Regarding `Cc1cccc(-n2nnc3c2CCN(C(=O)c2cccc(C(F)(F)F)c2Cl)[C@@H]3C)n1` (single isomer, unassigned) [Example 226, (R*)-(2-chloro-3-(trifluoromethyl)phenyl)(4-methyl-1-(6-methylpyridin-2-yl)-6,7-dihydro-1H-[1,2,3]triazolo[4,5-c]pyridin-5(4H)-yl)methanone], the “PBMC 10 μM (% control)” value amounted to 58.0 % control. On the same count and under the same terms, the result for `C[C@H]1Cc2c(nnn2-c2ncc(F)cn2)CN1C(=O)c1cc(F)cc(C(F)(F)F)c1` [Example 307, (S)-(3-fluoro-5-(trifluoromethyl)phenyl)(1-(5-fluoropyrimidin-2-yl)-6-methyl-6,7-dihydro-1H-[1,2,3]triazolo[4,5-c]pyridin-5(4H)-yl)methanone] reads 2.2 % control.

Take `CC1c2nnn(-c3ccc(F)cc3)c2C=CN1C(=O)c1cccc(C(F)(F)F)c1Cl` (stereo not drawn) [Example 81, 5-{[2-Chloro-3-(trifluoromethyl)phenyl]carbonyl}-1-(4-fluorophenyl)-4-methyl-4,5-dihydro-1H-[1,2,3]triazolo[4,5-c]pyridine]: the “PBMC 10 μM (% control)” value came to 5.9 % control. `CC1CN(C(=O)c2cccc(C(F)(F)F)c2Cl)Cc2nnn(-c3ccc(F)cc3)c21` (stereo not drawn) [Example 246, (2-Chloro-3-(trifluoromethyl)phenyl)(1-(4-fluorophenyl)-7-methyl-6,7-dihydro-1H-[1,2,3]triazolo[4,5-c]pyridin-5(4H)-yl)methanone]: the “PBMC 10 μM (% control)” value is reported as −3.1 % control. Turning to `C[C@@H]1Cc2c(nnn2-c2ccn[nH]2)[C@H](C)N1C(=O)c1cccc(C(F)(F)F)c1Cl` [Example 309, (2-chloro-3-(trifluoromethyl)phenyl)((4S,6R)-4,6-dimethyl-1-(1H-pyrazol-5-yl)-6,7-dihydro-1H-[1,2,3]triazolo[4,5-c]pyridin-5(4H)-yl)methanone], the “PBMC 10 μM (% control)” value turned out to be 1.4 % control. For `O=C(c1cccc(Cl)c1Cl)N1CCc2c(ncn2-c2ccccn2)C1` [Example 4, (2,3-Dichlorophenyl)(1-(pyridin-2-yl)-6,7-dihydro-1H-imidazo[4,5-c]pyridin-5(4H)-yl)methanone], the “PBMC 10 μM (% control)” value was −3.7 % control. Take `CCOc1cccnc1-n1nnc2c1CCN(C(=O)c1cccc(C(F)(F)F)c1Cl)C2C` (stereo not drawn) [Example 258, (2-Chloro-3-(trifluoromethyl)phenyl)(1-(3-ethoxypyridin-2-yl)-4-methyl-6,7-dihydro-1H-[1,2,3]triazolo[4,5-c]pyridin-5(4H)-yl)methanone]: the “PBMC 10 μM (% control)” value is listed as −3.2 % control. On to `Cc1c(C(=O)N2CCc3c(nnn3-c3ncccn3)[C@H]2C)cccc1C(F)(F)F` (single isomer, unassigned) [Example 188, (R*)-(4-methyl-1-(pyrimidin-2-yl)-6,7-dihydro-1H-[1,2,3]triazolo[4,5-c]pyridin-5(4H)-yl)(2-methyl-3-(trifluoromethyl)phenyl)methanone], for which the “PBMC 10 μM (% control)” value is −0.7 % control. Consider `C[C@@H]1c2nnn(-c3ncc(F)cn3)c2CCN1C(=O)c1cccc(C(F)(F)F)c1F` (single isomer, unassigned) [Example 190, (R*)-(2-fluoro-3-(trifluoromethyl)phenyl)(1-(5-fluoropyrimidin-2-yl)-4-methyl-6,7-dihydro-1H-[1,2,3]triazolo[4,5-c]pyridin-5(4H)-yl)methanone], for which the “PBMC 10 μM (% control)” value is on record as 7.1 % control. Take `C[C@@H]1c2n[nH]c(-c3ncc(F)cn3)c2CCN1C(=O)c1cccc(C(F)(F)F)c1Cl` (single isomer, unassigned) [Example 223, (R*)-(2-chloro-3-(trifluoromethyl)phenyl)(3-(5-fluoropyrimidin-2-yl)-7-methyl-4,5-dihydro-2H-pyrazolo[3,4-c]pyridin-6(7H)-yl)methanone]: the “PBMC 10 μM (% control)” value is 1.8 % control.

As for `Cc1cncc(-n2nnc3c2CCN(C(=O)c2cccc(Cl)c2Cl)C3C)n1` (stereo not drawn) [Example 180, (2,3-dichlorophenyl)(4-methyl-1-(6-methylpyrazin-2-yl)-6,7-dihydro-1H-[1,2,3]triazolo[4,5-c]pyridin-5(4H)-yl)methanone], the “PBMC 10 μM (% control)” value was −3.7 % control. Consider `Cc1nc(-n2nnc3c2CCN(C(=O)c2cccc(C(F)(F)F)c2Cl)C3C)ncc1F` (stereo not drawn) [Example 230, (2-chloro-3-(trifluoromethyl)phenyl)(1-(5-fluoro-4-methylpyrimidin-2-yl)-4-methyl-6,7-dihydro-1H-[1,2,3]triazolo[4,5-c]pyridin-5(4H)-yl)methanone], for which the “PBMC 10 μM (% control)” value came to 2.9 % control. On the same count and under the same terms, next, `CCc1nc2c(n1-c1ccccc1)CCN(C(=O)c1cccc(Cl)c1Cl)C2` [Example 332, (2,3-dichlorophenyl)(2-ethyl-1-phenyl-6,7-dihydro-1H-imidazo[4,5-c]pyridin-5(4H)-yl)methanone]: −9.5 % control; `C[C@H]1Cc2c(nnn2-c2ncccc2F)CN1C(=O)c1cccc(C(F)(F)F)c1Cl` (single isomer, unassigned) [Example 168, (6S*)-5-{[2-Chloro-3-(trifluoromethyl)phenyl]carbonyl}-1-(3-fluoropyridin-2-yl)-6-methyl-4,5,6,7-tetrahydro-1H-[1,2,3]triazolo[4,5-c]pyridine]: −4.2 % control; `C[C@H]1c2nnn(-c3cccc(F)n3)c2CCN1C(=O)c1cccc(C(F)(F)F)c1Cl` (single isomer, unassigned) [Example 147, (S*)-(2-Chloro-3-(trifluoromethyl)phenyl)(1-(6-fluoropyridin-2-yl)-4-methyl-6,7-dihydro-1H-[1,2,3]triazolo[4,5-c]pyridin-5(4H)-yl)methanone]: −8.9 % control. `C[C@H]1c2nnn(-c3ncccn3)c2CCN1C(=O)c1cccc(C(F)(F)F)c1F` (single isomer, unassigned) [Example 270, (S*)-(2-fluoro-3-(trifluoromethyl)phenyl)(4-methyl-1-(pyrimidin-2-yl)-6,7-dihydro-1H-[1,2,3]triazolo[4,5-c]pyridin-5(4H)-yl)methanone]: the “PBMC 10 μM (% control)” value is listed as 47.9 % control. As to `C[C@H]1c2nnn(-c3cnccn3)c2CCN1C(=O)c1cccc(C(F)(F)F)c1Cl` (single isomer, unassigned) [Example 75, (4S*)-5-{[2-Chloro-3-(trifluoromethyl)phenyl]carbonyl}-4-methyl-1-pyrazin-2-yl-4,5,6,7-tetrahydro-1H-[1,2,3]triazolo[4,5-c]pyridine], the “PBMC 10 μM (% control)” value is given as −0.3 % control.

On to `C[C@H]1c2nnn(-c3cc(F)ccn3)c2CCN1C(=O)c1cccc(C(F)(F)F)c1Cl` (single isomer, unassigned) [Example 149, (S*)-(2-Chloro-3-(trifluoromethyl)phenyl)(1-(4-fluoropyridin-2-yl)-4-methyl-6,7-dihydro-1H-[1,2,3]triazolo[4,5-c]pyridin-5(4H)-yl)methanone], for which the “PBMC 10 μM (% control)” value is given as 3.5 % control. Turning to `O=C(c1cccc(Cl)c1Cl)N1CCc2c(-c3ccncc3)n[nH]c2C1` [Example 115, 6-[(2,3-Dichlorophenyl)carbonyl]-3-pyridin-4-yl-4,5,6,7-tetrahydro-2H-pyrazolo[3,4-c]pyridine], the “PBMC 10 μM (% control)” value is −3.3 % control.

With `CCOc1cccnc1-n1nnc2c1CCN(C(=O)c1cccc(C(F)(F)F)c1Cl)[C@@H]2C` (single isomer, unassigned) [Example 316, (R*)-(2-chloro-3-(trifluoromethyl)phenyl)(1-(3-ethoxypyridin-2-yl)-4-methyl-6,7-dihydro-1H-[1,2,3]triazolo[4,5-c]pyridin-5(4H)-yl)methanone], the “PBMC 10 μM (% control)” value is reported as −9.6 % control. For `C[C@H]1c2ncn(-c3ccc(F)cc3)c2CCN1C(=O)c1cccc(C(F)(F)F)c1Cl` (single isomer, unassigned) [Example 47], the “PBMC 10 μM (% control)” value is −1.1 % control. Consider `C[C@@H]1c2ncn(-c3ccccn3)c2CCN1C(=O)c1cccc(Cl)c1Cl` (single isomer, unassigned) [Example 192, (R*)-(2,3-Dichlorophenyl)(4-methyl-1-(pyridin-2-yl)-6,7-dihydro-1H-imidazo[4,5-c]pyridin-5(4H)-yl)methanone], for which the “PBMC 10 μM (% control)” value is −6.3 % control. `C[C@H]1Cc2c(nnn2-c2ccn[nH]2)CN1C(=O)c1cccc(C(F)(F)F)c1Cl` (single isomer, unassigned) [Example 351, (S*)-(2-chloro-3-(trifluoromethyl)phenyl)(6-methyl-1-(1H-pyrazol-5-yl)-6,7-dihydro-1H-[1,2,3]triazolo[4,5-c]pyridin-5(4H)-yl)methanone]: the “PBMC 10 μM (% control)” value is reported as 0.6 % control.

Still in this experiment, the particulars now being: test compound 10 μM, LPS 30 ng/ml + 0.5 mM Bz-ATP.
Regarding `Cc1c(C(=O)N2CCc3c(nnn3-c3ncccn3)[C@H]2C)cccc1C(F)(F)F` (single isomer, unassigned) [Example 188, (R*)-(4-methyl-1-(pyrimidin-2-yl)-6,7-dihydro-1H-[1,2,3]triazolo[4,5-c]pyridin-5(4H)-yl)(2-methyl-3-(trifluoromethyl)phenyl)methanone], the “PBMC 10 μM (% control)” value is listed as −0.7 % control. As to `C[C@@H]1c2ncn(-c3ccccn3)c2CCN1C(=O)c1cccc(Cl)c1Cl` (single isomer, unassigned) [Example 192, (R*)-(2,3-Dichlorophenyl)(4-methyl-1-(pyridin-2-yl)-6,7-dihydro-1H-imidazo[4,5-c]pyridin-5(4H)-yl)methanone], the “PBMC 10 μM (% control)” value is on record as −6.3 % control.
